Literature values in patent US20120148512A1, “Method for Increasing the Sun Protection Factor of a Cosmetic and/or Dermatological Preparation” (BASF SE, priority 2006, published 2012).

Row | photostability (filter substance on its own) | absorption retained in the absorption maximum (following sun-simulated irradiation (5 and 10 MED)) | SMILES
1 | not photostable | – | COc1ccc(C(=O)CC(=O)c2ccc(C(C)(C)C)cc2)cc1 [BMDBM, 4-(tert-butyl)-4′-methoxydibenzoylmethane]
2 | – | more than 90% | O=S(=O)(O)c1ccc2nc(-c3ccccc3)[nH]c2c1 [2-phenylbenzimidazole-5-sulfonic acid]
